Measured values from ChEMBL document CHEMBL1133412, “Rational design, synthesis and structure-activity relationships of antitumor (E)-2-benzylidene-1-tetralones and (E)-2-benzylidene-1-indanones” (Bioorg Med Chem Lett, 2000).

Assays:
Type in all cases: functional, cell-based
[1] = test system: A549; assay: Cytotoxicity evaluated against A549 tumor cell lines; significant activity; details: Homo sapiens
[2] = test system: CCRF-CEM; assay: Cytotoxicity evaluated against CEM tumor cell lines; Significant activity; details: Homo sapiens
[3] = test system: NCI-H292; assay: Cytotoxicity evaluated against H292 tumor cell lines; Significant activity; details: Homo sapiens
[4] = test system: WI-38; assay: Cytotoxicity evaluated against WI38 tumor cell lines; Significant activity; details: Homo sapiens
[5] = test system: Jurkat; assay: In vitro test for antitumor activity against human Jurkat cell line using a formazan dye (MTT) conversion assay.
[6] = test system: MCF7; assay: Cytotoxicity evaluated against MCF-7 tumor cell lines; Significant activity; details: Homo sapiens
[7] = test system: L1210; assay: Cytotoxicity evaluated against L1210 tumor cell lines; Significant activity; details: Mus musculus
[8] = test system: WIL2; assay: Cytotoxicity evaluated against WIL2 tumor cell lines; Significant activity; details: Homo sapiens
[9] = test system: MOLT-4; assay: Cytotoxicity was evaluated against Molt-4 tumor cell lines; details: Homo sapiens
[10] = test system: K562; assay: Cytotoxicity evaluated against K562 tumor cell lines; Significant activity; details: Homo sapiens
[11] = test system: NIH3T3; assay: Cytotoxicity evaluated against NIH3T3 tumor cell lines; Significant activity; details: Mus musculus
[12] = test system: B16; assay: Cytotoxicity was evaluated against B16 tumor cell lines; Significant activity; details: Mus musculus
[13] = test system: HL-60; assay: Cytotoxicity evaluated against HL-60 tumor cell lines; Significant activity; details: Homo sapiens
[14] = test system: NCI-H596; assay: Cytotoxicity evaluated against H596 tumor cell lines; Significant activity; details: Homo sapiens

Row | SMILES | Cytotoxicity [1] | Cytotoxicity [2] | Cytotoxicity [3] | Cytotoxicity [4] | IC50 [5] [µM] | Cytotoxicity [6] | Cytotoxicity [7] | Cytotoxicity [8] | Cytotoxicity [9] | Cytotoxicity [10] | Cytotoxicity [11] | Cytotoxicity [12] | Cytotoxicity [13] | Cytotoxicity [14]
1 | COc1cc2c(cc1OC)C(=O)/C(=C/c1cccc(Cl)c1)CC2 | Significant activity | Significant activity | Significant activity | Significant activity | 9 | Significant activity | Significant activity | Significant activity | Significant activity | Significant activity | Significant activity | Significant activity | Significant activity | Significant activity
2 | COc1cc2c(cc1OC)C(=O)/C(=C/c1cccc(C)c1)C2 | Significant activity | Significant activity | Significant activity | Significant activity | 1.8 | Significant activity | Significant activity | Significant activity | Significant activity | Significant activity | Significant activity | Significant activity | Significant activity | Significant activity
3 | COc1cc2c(cc1OC)C(=O)/C(=C/c1cc(C)c(OC(C)=O)c(C)c1)C2 | Significant activity | Significant activity | Significant activity | Significant activity | 0.4 | Significant activity | Significant activity | Significant activity | Significant activity | Significant activity | Significant activity | Significant activity | Significant activity | Significant activity
4 | COc1cc2c(cc1OC)C(=O)/C(=C/c1cccc(Cl)c1)C2 | Significant activity | Significant activity | Significant activity | Significant activity | 8 | Significant activity | Significant activity | Significant activity | Significant activity | Significant activity | Significant activity | Significant activity | Significant activity | Significant activity
5 | COc1cc2c(cc1OC)C(=O)/C(=C/c1cc(C)c(O)c(C)c1)CC2 | Significant activity | Significant activity | Significant activity | Significant activity | 4.8 | Significant activity | Significant activity | Significant activity | Significant activity | Significant activity | Significant activity | Significant activity | Significant activity | Significant activity
6 | COc1cc2c(c(OC)c1OC)C(=O)/C(=C/c1cc(C)c(O)c(C)c1)C2 | Significant activity | Significant activity | Significant activity | Significant activity | 0.125 | Significant activity | Significant activity | Significant activity | Significant activity | Significant activity | Significant activity | Significant activity | Significant activity | Significant activity
7 | COc1cc2c(cc1OC)C(=O)/C(=C/c1cc(OC)c(OC)c(OC)c1)CC2 | Significant activity | Significant activity | Significant activity | Significant activity | > 50 | Significant activity | Significant activity | Significant activity | Significant activity | Significant activity | Significant activity | Significant activity | Significant activity | Significant activity
